Experimental data reported in patent publication US9353152B2, “Induction of the mitochondrial permeability transition” (NewSouth Innovations Pty Limited, priority 2002, dated 2016).
Where “and” joins values, the source holds several entries; their conditions need not be identical. Equal entries are not always repeated. Where two headings read alike, the source gives them in different places.

What was measured:
ANT Cys^160 = molecular target: T1, ANT Cys^160 (Rattus norvegicus, UniProt Q09073); assay: Labelling of ANT with eosin-5-maleimide (competition); assay type: binding; conditions: 200 nmol GSAO per mg of protein, sub-mitochondrial particles
T1 construct: Rat liver sub-mitochondrial particles were prepared by sonication and differential centrifugation; from tissue; host or cells: rat liver sub-mitochondrial particles
T1 sequence (Q09073 1-298): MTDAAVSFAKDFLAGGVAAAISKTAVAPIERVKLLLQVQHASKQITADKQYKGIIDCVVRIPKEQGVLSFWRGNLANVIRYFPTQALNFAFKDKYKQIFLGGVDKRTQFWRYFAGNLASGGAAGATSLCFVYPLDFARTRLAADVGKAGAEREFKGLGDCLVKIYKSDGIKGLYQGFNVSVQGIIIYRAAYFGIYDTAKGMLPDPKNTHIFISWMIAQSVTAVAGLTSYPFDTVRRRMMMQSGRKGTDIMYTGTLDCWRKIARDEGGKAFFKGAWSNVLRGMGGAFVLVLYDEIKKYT
Experimental: Rat liver sub-mitochondrial particles were prepared by sonication and differential centrifugation according to Majima et al. (1998). The particles were suspended at 20 mg of protein per mL in 10 mM Tris, pH 7.2 buffer containing 250 mM sucrose and 0.2 mM EDTA and incubated without or with 200 nmol GSAO per mg of protein for 10 min at 25° C., followed by 20 nmol of eosin-5-maleimide per mg of protein for 1 min at 0° C. in the dark. The labelling was terminated by addition of 10 μmol of dithiothreitol per mg of protein. The proteins were resolved on 4-20% gradient iGels and the eosin-labelled ANT was visualised by UV transillumination using a Fluor-S™ Multilmager (Bio-Rad, Hercules, Calif.).

CAM angiogenesis = assay: Chick chorioallantoic membrane (CAM) angiogenesis assay; assay type: in vivo; conditions: 5, 10 or 50 μg per pellet, 48 h
Experimental: Fertilised 3 day-old white Leghorn eggs (Spafas, Norwich, Conn.) were cracked, the embryos with intact yolks placed in 20×100 mm petri dishes and incubated for 3 days at 37° C. and 3% CO2 (Folkman, 1985). Methylcellulose (Fisher Scientific, Fair Lawn, N.J.) discs containing 5, 10 or 50 μg of either GSAA or GSAO were then applied to the CAM of individual embryos and incubated for 48 h at 37° C. and 3% CO2. The discs were made by desiccation of GSAA or GSAO in 10 μl of 0.45% methycellulose on teflon rods. The CAMs were observed using a stereomicroscope and scored for no obvious affect or inhibition of CAM angiogenesis as defined by avascular zones. On some occasions CAM blood vessels were injected with India ink and photographed.

[1] = test system: BAE (bovine aortic endothelial); assay: Proliferation arrest and loss of viability (cell number and propidium iodide, flow cytometry); assay type: cell-based; conditions: 48 h
Experimental: (§1) To distinguish between the anti-proliferative and pro-apoptotic effects of GSAO, treated cells were stained with propidium iodide (PI) to detect late-apoptotic or dead cells. The total number of cells and the proportion of cells that were PI-positive following 48 h treatment with GSAO were measured by flow cytometry.

[2] = test system: LLC (murine lung carcinoma); assay: as above; assay type: cell-based; conditions: 48 h
Experimental: as §1

[3] = test system: HDMVE (human dermal endothelial); assay: as above; assay type: cell-based; conditions: 48 h
Experimental: as §1

[4] = test system: HL60 (human erythroid leukaemia); assay: as above; assay type: cell-based; conditions: HL60, 48 h
Experimental: as §1

[5] = test system: A549 (human lung carcinoma); assay: as above; assay type: cell-based; conditions: A549, 48 h
Experimental: as §1

[6] = test system: BxPC-3 (human pancreatic carcinoma); assay: as above; assay type: cell-based; conditions: for IC50: BxPC-3, 48 h
Experimental: as §1

BAE cells = assay: Cell proliferation and viability assay (MTT); assay type: cell-based, bovine; conditions: 10% serum, 48 h; read-out: IC50 for proliferation arrest of BAE cells
Experimental: BAE or human pancreatic carcinoma BxPC-3 cells were seeded at a density of 10^3 cells per well into 96 well plates in DMEM containing 10% foetal bovine serum and allowed to adhere for 24 h. Cells were washed and incubated with DMEM containing 10% foetal bovine serum and GSAO or o-GSAO and cultured for a further 48 h. Some BAE cells were arrested for 24 h in medium containing 0.25% serum and cultured for a further 48 h in medium containing 0.25% or 10% serum, in the presence of GSAO or o-GSAO. Viable attached cells were determined using MTT.

[7] = test system: bovine vascular smooth muscle cells; assay: Proliferation arrest; assay type: cell-based
Experimental: as §1

[8] = Titration of arsenoxide compounds with DTT; assay type: physicochemical; conditions: GSAO versus Compound 1
MPTP = molecular target: T2, MPTP (Rattus norvegicus, UniProt Q09073); assay type: biochemical
T2 construct: Mitochondria were isolated from the livers of ˜250 g male Wistar rats; from tissue; host or cells: rat liver mitochondria (male Wistar rats)
T2 sequence (Q09073 2-298 limits assumed): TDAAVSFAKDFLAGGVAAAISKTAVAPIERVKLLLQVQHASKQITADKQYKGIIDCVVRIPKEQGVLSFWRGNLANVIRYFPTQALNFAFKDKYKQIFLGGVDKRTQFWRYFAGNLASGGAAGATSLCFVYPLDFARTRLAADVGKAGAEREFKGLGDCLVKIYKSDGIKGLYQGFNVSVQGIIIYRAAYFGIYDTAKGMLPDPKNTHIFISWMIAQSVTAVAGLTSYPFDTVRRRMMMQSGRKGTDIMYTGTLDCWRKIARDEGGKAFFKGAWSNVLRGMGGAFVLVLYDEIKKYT

[9] = Tolerability in tumour-bearing mice; assay type: in vivo, SCID or C57Bl6/J mice
Experimental: Female 7 to 9 week old SCID or C57Bl6/J mice were used (Massachusetts General Hospital, Boston, Mass.). Mice were held in groups of 3 to 5 at a 12 hour day and night cycle and were given animal chow and water ad libidum. SCID or C57Bl6/J mice were anaesthetised by inhalation of isoflurane, the dorsal skin shaved and cleaned with ethanol, and a suspension of 2.5×10^6 BxPC-3, HT1080 or LLC cells in 0.2 mL of PBS, or saline for LLC cells, was injected S.C. in the proximal midline. LLC cells were prepared according to O'Reilly et al. (1997). Tumour volume was calculated using the relationship, a·b^2·0.52, where a is the longest and b the shortest diameter.

[10] = read-out: Loss of Viability IC50
[11] = read-out: Proliferation Arrest IC50

For N[C@@H](CCC(=O)N[C@@H](CSCC(=O)Nc1ccc([As]=O)cc1)C(=O)NCC(=O)O)C(=O)O (stereo partly drawn) [GSAO, 4-(N—(S-glutathionylacetyl)amino)-phenylarsenoxide], which “competition for eosine-maleimide alkylation of ANT Cys^160” value (ANT Cys^160) is on record?
The value was “competed”.

What about the “inhibition of CAM angiogenesis (avascular zones)” value (CAM angiogenesis) of the same compound?
The value was “inhibited CAM angiogenesis in a concentration-dependent manner”.

What about the IC50 [1, 10] of the same compound?
The IC50 was ~75 µM and 75 µM.

And the IC50 [1, 11]?
Its IC50 is ~10 µM and 10 µM.

What about the IC50 [2] of the same compound?
The IC50 was 140 µM.

And the IC50 [3, 10]?
The IC50 was ~35 µM and 35 µM.

What about the IC50 [3, 11] of the same compound?
Its IC50 is ~15 µM and 15 µM.

What about the IC50 [4, 10] of the same compound?
The IC50 was 140 µM.

What about the IC50 [4, 11] of the same compound?
Its IC50 is 50 µM.

And the IC50 [5, 10]?
Its IC50 is 150 µM.

What about the IC50 [5, 11] of the same compound?
The IC50 was 80 µM.

And the IC50 [6, 10]?
Its IC50 is > 320 µM.

What about the IC50 [6, 11] of the same compound?
The IC50 was > 320 µM.

And the “concentration without effect on BxPC-3 proliferation relative to endothelial proliferation arrest” value ([6]; Table 1)?
Its value is > 30 fold.

What about the IC50 (BAE cells) of the same compound?
The IC50 was 8.3 ± 2.1 µM.

What about the IC50 [7] of the same compound?
The IC50 was ~30 µM.

What about the “arsenical reactivity (titration with DTT)” value [8] of the same compound?
Its value is “no significant difference”.

What about the “MPTP Swelling Rate Increase/GSAO* Mean” value (MPTP) of the same compound?
Its value is 1.

And the “adverse affects of administration” value ([9]; 10 mg/kg/day s.c.)?
The value was “no apparent adverse affects”.

And the “morphological changes in the heart, lungs, liver, kidneys, and spleen” value ([9]; 10 mg/kg/day s.c.)?
Its value is “no morphological changes”.

What about the “average mice weights over the course of the experiments” value ([9]; GSAO versus GSAA treatment groups) of the same compound?
The value was “the same”.
